From US20220308068A1, “BIOMARKER IN OSTEOPOROSIS INTERVENTION THERAPY BY BONE PEPTIDE, SCREENING METHOD AND USE THEREOF” (Institute of Food Science and Technology, Chinese Academy …, priority 2019, published 2022)

Tested on: ovariectomized osteoporosis rat model
Test: three-point bending test of left femurs
Type: in vivo, SD rats
Conditions: left femur; treatment groups and ES group vs Model group
Protocol: 1, the construction of ovariectomized rats models: SD rats are kept in a clean environment under a controlled room temperature at 25±2° C. and alternates 12/12 light and dark every day, and the SD rats feed freely. After one week adaptive feeding, randomly select 8 female rats, anesthetize them with 1% (v/v) pentobarbital sodium (40 mg/kg BW), and remove a little fat near ovaries. The remaining 40 rats are ovariectomized after being anesthetized with pentobarbital sodium. The recovery situation is observed in a 4-week recovery period, and their weight changes are detected. These are prepared by the applicant in advance. (any research about metabolic fingerprint changes of ovariectomized osteoporotic rats after intervention with bone peptide have not been reported according to the existing literature). 2, animal grouping and samples collection: the 8 female rats with a little fat near ovaries removed are selected as a sham-operated group, the ovariectomized 40 rats are randomly divided into 5 groups with 8 rats in each group, and are named by a negative control group, a positive control group, a low-concentration treatment group, a medium-concentration treatment group and a high-concentration treatment group. […]

C[C@]12CC[C@@H]3c4ccc(O)cc4CC[C@H]3[C@@H]1CC[C@@H]2O [ES, 17β-estradiol]
elastic load (Ed): on a rise trend | fracture load (Fd): on a rise trend
